Test results published in US20060142336A1, “N-sulfonylpiperidines as metalloproteinase inhibitors (tace)” (priority 2002, published 2006).

Assays:
[1] = molecular target: T1, proTNFα convertase enzyme (TACE) (Homo sapiens, UniProt P78536); experiment: partially purified isolated enzyme assay for proTNFα convertase (TACE) inhibition; type: biochemical; settings: 10 μM of compound; enzyme from membranes of THP-1
T1 construct: a partially purified, isolated enzyme assay, the enzyme being obtained from the membranes of THP-1; endogenous in cells; host or cells: THP-1 cell membranes (partially purified)
Method: Recombinant human proMMP13 may be expressed and purified as described by Knauper et al. [V. Knauper et al., (1996) […] 271:1544-1550 (1996)]. […] Activity is determined by measuring the fluorescence at λex 328 nm and λem 393 nm. Percent inhibition is calculated as follows: % Inhibition is equal to the [Fluorescenceplus inhibitor−Fluorescencebackground] divided by the [Fluorescenceminus inhibitor−Fluorescencebackground].
The ability of the compounds to inhibit proTNFα convertase enzyme (TACE) may be assessed using a partially purified, isolated enzyme assay, the enzyme being obtained from the membranes of THP-1 as described by K. M. Mohler et al., (1994) Nature 370:218-220. The purified enzyme activity and inhibition thereof is determined by incubating the partially purified enzyme in the presence or absence of test compounds using the substrate 4′,5′-Dimethoxy-fluoresceinyl Ser.Pro.Leu.Ala.Gln.Ala.Val.Arg.Ser.Ser.Ser.Arg.Cys(4-(3-succinimid-1-yl)-fluorescein)-NH2 in assay buffer (50 mM Tris HCl, pH 7.4 containing 0.1% (w/v) Triton X-100 and 2 mM CaCl2), at 26° C. for 4 hours. The amount of inhibition is determined as for MMP13 except λex 485 nm and λem 538 nm were used. […]

T1 sequence (P78536 215-824): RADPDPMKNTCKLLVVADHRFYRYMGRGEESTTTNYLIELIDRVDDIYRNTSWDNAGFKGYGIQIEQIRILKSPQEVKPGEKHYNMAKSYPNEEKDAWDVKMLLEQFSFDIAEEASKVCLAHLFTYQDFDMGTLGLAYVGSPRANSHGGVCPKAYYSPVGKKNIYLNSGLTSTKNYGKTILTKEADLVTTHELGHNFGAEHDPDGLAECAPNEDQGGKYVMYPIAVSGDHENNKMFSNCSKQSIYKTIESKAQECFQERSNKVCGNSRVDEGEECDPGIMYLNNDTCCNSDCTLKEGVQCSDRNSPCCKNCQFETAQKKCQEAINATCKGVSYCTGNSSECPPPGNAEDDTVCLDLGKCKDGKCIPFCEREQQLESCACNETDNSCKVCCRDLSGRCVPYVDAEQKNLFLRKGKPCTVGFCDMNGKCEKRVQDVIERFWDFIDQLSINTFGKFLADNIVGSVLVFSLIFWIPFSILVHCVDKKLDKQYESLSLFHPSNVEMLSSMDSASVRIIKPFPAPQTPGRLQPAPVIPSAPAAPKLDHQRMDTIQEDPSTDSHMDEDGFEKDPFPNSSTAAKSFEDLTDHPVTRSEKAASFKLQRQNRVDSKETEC

SMILES | melting point | inhibition at 10 µM [1]
Cc1cc(COC2CCN(S(=O)(=O)CC(C)C(=O)NO)CC2)c2ccccc2n1 (racemic) [Example 12, (R/S)-2-Methyl-3-({4-[(2-methylquinolin-4-yl)methoxy]piperidin-1-yl}sulphonyl)propionic hydroxamic acid] | 184.7 °C | –
O=CN(O)C(CS(=O)(=O)N1CCC(OCc2cccc(F)c2)CC1)c1ccccc1 (racemic) [compound 25, (R/S)-2-({4-[(3-fluorobenzyl)oxy]piperidin-1-yl}sulphonyl)-1-phenylethyl(hydroxy)formamide] | – | 97%
Cc1ccc(COC2CCN(S(=O)(=O)CC(c3cccnc3)N(O)C=O)CC2)cc1C (racemic) [compound 42, (R/S)-2-({4-[(3,4-dimethylbenzyl)oxy]piperidin-1-yl}sulphonyl)-1-pyridin-3-ylethyl(hydroxy)formamide] | – | 99%
